# Like-named read-outs stand apart in the source and are kept apart here.
# Assays:
# OXA-48 strains = conditions: Livermore et al., cited from earlier work
# VIM strains = format: cell-based, Enterobacteriaceae; conditions: Ex 2, MIC in mg/l
# Description: (§1) Optimization of the Detection Specificity by Introducing Specific Inhibitors Inhibition of Class B Strains (NDM, VIM, IMP) by Adding EDTA
# (§2) Identical to that used to determine the temocillin MICs by agar dilution (example 1).
# (§3) For each temocillin concentration, the following concentrations of active EDTA will be tested in the form of disodium EDTA: 0, 1.77, 2.12, 2.47 and 2.83 mmol/l.
# (§4) Method: identical to the method used in example 1.
# NDM-1 strains = format: cell-based, Enterobacteriaceae; conditions: Ex 2, MIC in mg/l
# Description: as §1, §2, §3, §4
# [1] = system: strains with impermeability-mediated resistance (IR); format: cell-based, Enterobacteriaceae; conditions: Ex 2; 0 mmol/l of EDTA; MIC in mg/l
# Description: as §1, §2, §3, §4
compound,measurement,setting,value
CO[C@@]1(NC(=O)C(C(=O)O)c2ccsc2)C(=O)N2[C@@H](C(=O)O)C(C)(C)S[C@@H]21 (stereo partly shown) [temocillin],strains resistant to temocillin,OXA-48 strains; OXA-48 strains,18/19
same,minimum inhibitory concentration (MIC),"OXA-48 strains; resistant strains, growth at final concentration tested of 128 mg/l",≥ 256 mg/L
same,No. of VIM strains with MIC 150,VIM strains; 0 mmol/l of EDTA,6
same,No. of VIM strains with MIC 200,VIM strains; 0 mmol/l of EDTA,1
same,No. of VIM strains with MIC 300,VIM strains; 0 mmol/l of EDTA,0
same,No. of VIM strains with MIC >300,VIM strains; 0 mmol/l of EDTA,1
same,No. of VIM strains with MIC ≦50,VIM strains; 0 mmol/l of EDTA,9
same,No. of VIM strains with MIC 150,VIM strains; 1.77 mmol/l of active EDTA,0
same,No. of VIM strains with MIC 200,VIM strains; 1.77 mmol/l of active EDTA,0
same,No. of VIM strains with MIC 300,VIM strains; 1.77 mmol/l of active EDTA,0
same,No. of VIM strains with MIC >300,VIM strains; 1.77 mmol/l of active EDTA,0
same,No. of VIM strains with MIC ≦50,VIM strains; 1.77 mmol/l of active EDTA,17
same,No. of VIM strains with MIC 150,VIM strains; 2.12 mmol/l of active EDTA,0
same,No. of VIM strains with MIC 200,VIM strains; 2.12 mmol/l of active EDTA,0
same,No. of VIM strains with MIC 300,VIM strains; 2.12 mmol/l of active EDTA,0
same,No. of VIM strains with MIC >300,VIM strains; 2.12 mmol/l of active EDTA,0
same,No. of VIM strains with MIC ≦50,VIM strains; 2.12 mmol/l of active EDTA,17
same,No. of VIM strains with MIC 150,VIM strains; 2.47 mmol/l of active EDTA,0
same,No. of VIM strains with MIC 200,VIM strains; 2.47 mmol/l of active EDTA,0
same,No. of VIM strains with MIC 300,VIM strains; 2.47 mmol/l of active EDTA,0
same,No. of VIM strains with MIC >300,VIM strains; 2.47 mmol/l of active EDTA,0
same,No. of VIM strains with MIC ≦50,VIM strains; 2.47 mmol/l of active EDTA,17
same,No. of VIM strains with MIC 150,VIM strains; 2.83 mmol/l of active EDTA,0
same,No. of VIM strains with MIC 200,VIM strains; 2.83 mmol/l of active EDTA,0
same,No. of VIM strains with MIC 300,VIM strains; 2.83 mmol/l of active EDTA,0
same,No. of VIM strains with MIC >300,VIM strains; 2.83 mmol/l of active EDTA,0
same,No. of VIM strains with MIC ≦50,VIM strains; 2.83 mmol/l of active EDTA,17
same,No. of NDM-1 strains with MIC 150,NDM-1 strains; 0 mmol/l of EDTA,4
same,No. of NDM-1 strains with MIC 200,NDM-1 strains; 0 mmol/l of EDTA,1
same,No. of NDM-1 strains with MIC 300,NDM-1 strains; 0 mmol/l of EDTA,0
same,No. of NDM-1 strains with MIC >300,NDM-1 strains; 0 mmol/l of EDTA,0
same,No. of NDM-1 strains with MIC ≦50,NDM-1 strains; 0 mmol/l of EDTA,22
same,No. of NDM-1 strains with MIC 150,NDM-1 strains; 1.77 mmol/l of active EDTA,2
same,No. of NDM-1 strains with MIC 200,NDM-1 strains; 1.77 mmol/l of active EDTA,0
same,No. of NDM-1 strains with MIC 300,NDM-1 strains; 1.77 mmol/l of active EDTA,0
same,No. of NDM-1 strains with MIC >300,NDM-1 strains; 1.77 mmol/l of active EDTA,0
same,No. of NDM-1 strains with MIC ≦50,NDM-1 strains; 1.77 mmol/l of active EDTA,25
same,No. of NDM-1 strains with MIC 150,NDM-1 strains; 2.12 mmol/l of active EDTA,1
same,No. of NDM-1 strains with MIC 200,NDM-1 strains; 2.12 mmol/l of active EDTA,0
same,No. of NDM-1 strains with MIC 300,NDM-1 strains; 2.12 mmol/l of active EDTA,0
same,No. of NDM-1 strains with MIC >300,NDM-1 strains; 2.12 mmol/l of active EDTA,0
same,No. of NDM-1 strains with MIC ≦50,NDM-1 strains; 2.12 mmol/l of active EDTA,26
same,No. of NDM-1 strains with MIC 150,NDM-1 strains; 2.47 mmol/l of active EDTA,1
same,No. of NDM-1 strains with MIC 200,NDM-1 strains; 2.47 mmol/l of active EDTA,0
same,No. of NDM-1 strains with MIC 300,NDM-1 strains; 2.47 mmol/l of active EDTA,0
same,No. of NDM-1 strains with MIC >300,NDM-1 strains; 2.47 mmol/l of active EDTA,0
same,No. of NDM-1 strains with MIC ≦50,NDM-1 strains; 2.47 mmol/l of active EDTA,26
same,No. of NDM-1 strains with MIC 150,NDM-1 strains; 2.83 mmol/l of active EDTA,0
same,No. of NDM-1 strains with MIC 200,NDM-1 strains; 2.83 mmol/l of active EDTA,0
same,No. of NDM-1 strains with MIC 300,NDM-1 strains; 2.83 mmol/l of active EDTA,0
same,No. of NDM-1 strains with MIC >300,NDM-1 strains; 2.83 mmol/l of active EDTA,0
same,No. of NDM-1 strains with MIC ≦50,NDM-1 strains; 2.83 mmol/l of active EDTA,27
same,No. of IR strains with MIC 150,[1],2
same,No. of IR strains with MIC 200,[1],0
same,No. of IR strains with MIC 300,[1],0
